# Reference: ChEMBL document CHEMBL1629679, “Extended-spectrum cephalosporinases in Pseudomonas aeruginosa” (2009)
# Assays:
# Pseudomonas aeruginosa [1] = assay: Antimicrobial activity against AmpC overproducing Pseudomonas aeruginosa isolate Pae-beta-03 with PDC-2 variant by Etest; assay type: functional
# Pseudomonas aeruginosa [2] = assay: Antimicrobial activity against AmpC overproducing Pseudomonas aeruginosa isolate Pae-beta-04 with PDC-2 variant by Etest; assay type: functional
# Pseudomonas aeruginosa [3] = assay: Antimicrobial activity against Pseudomonas aeruginosa isolate Pae-beta-05 with PDC-2 variant by Etest; assay type: functional
# Pseudomonas aeruginosa [4] = assay: Antimicrobial activity against AmpC overproducing Pseudomonas aeruginosa isolate Pae-beta-06 with PDC-2 variant by Etest; assay type: functional
# Pseudomonas aeruginosa [5] = assay: Antimicrobial activity against AmpC overproducing Pseudomonas aeruginosa isolate Pae-beta-07 with PDC-2 variant by Etest; assay type: functional
# Pseudomonas aeruginosa [6] = assay: Antimicrobial activity against AmpC overproducing Pseudomonas aeruginosa isolate Pae-beta-08 with PDC-2 variant by Etest; assay type: functional
# Pseudomonas aeruginosa [7] = assay: Antimicrobial activity against AmpC overproducing Pseudomonas aeruginosa isolate Pae-beta-09 with PDC-2 variant by Etest; assay type: functional
# Pseudomonas aeruginosa [8] = assay: Antimicrobial activity against AmpC overproducing Pseudomonas aeruginosa isolate Pae-beta-10 with PDC-2 variant by Etest; assay type: functional
# Pseudomonas aeruginosa [9] = assay: Antimicrobial activity against AmpC overproducing Pseudomonas aeruginosa isolate Pae-beta-11 with PDC-2 variant by Etest; assay type: functional
# Pseudomonas aeruginosa [10] = assay: Antimicrobial activity against AmpC overproducing Pseudomonas aeruginosa isolate Pae-beta-12 with PDC-2 variant by Etest; assay type: functional
# Pseudomonas aeruginosa [11] = assay: Antimicrobial activity against AmpC overproducing Pseudomonas aeruginosa isolate Pae-beta-13 with PDC-2 variant by Etest; assay type: functional
# Pseudomonas aeruginosa [12] = assay: Antimicrobial activity against AmpC overproducing Pseudomonas aeruginosa isolate Pae-beta-14 with PDC-2 variant by Etest; assay type: functional
# Pseudomonas aeruginosa [13] = assay: Antimicrobial activity against AmpC overproducing Pseudomonas aeruginosa isolate Pae-beta-15 with PDC-2 variant by Etest; assay type: functional
# Pseudomonas aeruginosa [14] = assay: Antimicrobial activity against AmpC overproducing Pseudomonas aeruginosa isolate Pae-beta-16 with PDC-3 variant by Etest; assay type: functional
# Pseudomonas aeruginosa [15] = assay: Antimicrobial activity against AmpC overproducing Pseudomonas aeruginosa isolate Pae-beta-17 with PDC-3 variant by Etest; assay type: functional
# Pseudomonas aeruginosa [16] = assay: Antimicrobial activity against AmpC overproducing Pseudomonas aeruginosa isolate Pae-beta-18 with PDC-3 variant by Etest; assay type: functional
# Pseudomonas aeruginosa [17] = assay: Antimicrobial activity against AmpC overproducing Pseudomonas aeruginosa isolate Pae-beta-20 with PDC-4 variant by Etest; assay type: functional
# Pseudomonas aeruginosa [18] = assay: Antimicrobial activity against AmpC overproducing Pseudomonas aeruginosa isolate Pae-beta-21 with PDC-4 variant by Etest; assay type: functional
# Pseudomonas aeruginosa [19] = assay: Antimicrobial activity against AmpC overproducing Pseudomonas aeruginosa isolate Pae-beta-22 with PDC-4 variant by Etest; assay type: functional
# Pseudomonas aeruginosa [20] = assay: Antimicrobial activity against AmpC overproducing Pseudomonas aeruginosa isolate Pae-beta-23 with PDC-5 variant by Etest; assay type: functional
# Pseudomonas aeruginosa [21] = assay: Antimicrobial activity against AmpC overproducing Pseudomonas aeruginosa isolate Pae-beta-24 with PDC-5 variant by Etest; assay type: functional
# Pseudomonas aeruginosa [22] = assay: Antimicrobial activity against AmpC overproducing Pseudomonas aeruginosa isolate Pae-beta-25 with PDC-6 variant by Etest; assay type: functional
# Pseudomonas aeruginosa [23] = assay: Antimicrobial activity against AmpC overproducing Pseudomonas aeruginosa isolate Pae-beta-27 with PDC-7 variant by Etest; assay type: functional
# Pseudomonas aeruginosa [24] = assay: Antimicrobial activity against AmpC overproducing Pseudomonas aeruginosa isolate Pae-beta-28 with PDC-7 variant by Etest; assay type: functional
# Pseudomonas aeruginosa [25] = assay: Antimicrobial activity against Pseudomonas aeruginosa isolate Pae-beta-30 with PDC-8 variant by Etest; assay type: functional
# Pseudomonas aeruginosa [26] = assay: Antimicrobial activity against Pseudomonas aeruginosa isolate Pae-beta-31 with PDC-9 variant by Etest; assay type: functional
# Pseudomonas aeruginosa [27] = assay: Antimicrobial activity against AmpC overproducing Pseudomonas aeruginosa isolate Pae-beta-32 with PDC-10 variant by Etest; assay type: functional
# Pseudomonas aeruginosa [28] = assay: microbe, parasite or virus in culture; assay type: functional; conditions: KG2505a
# Pseudomonas aeruginosa [29] = assay: microbe, parasite or virus in culture; assay type: functional; conditions: KG2505a; remark: listed apart in the source
# Pseudomonas aeruginosa [30] = assay: microbe, parasite or virus in culture; assay type: functional; conditions: KG2505a; remark: listed apart in the source
# Pseudomonas aeruginosa [31] = assay: microbe, parasite or virus in culture; assay type: functional; conditions: KG2505a; remark: listed apart in the source
# Pseudomonas aeruginosa [32] = assay: microbe, parasite or virus in culture; assay type: functional; conditions: KG2505a; remark: listed apart in the source
# Pseudomonas aeruginosa [33] = assay: microbe, parasite or virus in culture; assay type: functional; conditions: 12B
# Pseudomonas aeruginosa [34] = assay: microbe, parasite or virus in culture; conditions: PAO1
# Pseudomonas aeruginosa [35] = assay: microbe, parasite or virus in culture; conditions: 12B
# Pseudomonas aeruginosa [36] = assay: microbe, parasite or virus in culture; conditions: 12B; remark: listed apart in the source
# Pseudomonas aeruginosa [37] = assay: Antimicrobial activity against Pseudomonas aeruginosa isolate Pae-beta-01 with PDC-1 variant by Etest; assay type: functional
# Pseudomonas aeruginosa [38] = assay: Antimicrobial activity against Pseudomonas aeruginosa isolate Pae-beta-02 with PDC-1 variant by Etest; assay type: functional
# Pseudomonas aeruginosa [39] = assay: Antimicrobial activity against Pseudomonas aeruginosa isolate Pae-beta-19 with PDC-3 variant by Etest; assay type: functional
# Pseudomonas aeruginosa [40] = assay: Antimicrobial activity against Pseudomonas aeruginosa isolate Pae-beta-29 with PDC-8 variant by Etest; assay type: functional
# Pseudomonas aeruginosa [41] = assay: microbe, parasite or virus in culture; conditions: isolate Pae-beta-26
# Pseudomonas aeruginosa [42] = assay: microbe, parasite or virus in culture; conditions: 12B; remark: listed apart in the source
# Pseudomonas aeruginosa [43] = assay: microbe, parasite or virus in culture; conditions: 12B; remark: listed apart in the source
structure (smiles),measurement,setting,value
CO/N=C(\C(=O)N[C@@H]1C(=O)N2C(C(=O)[O-])=C(C[N+]3(C)CCCC3)CS[C@H]12)c1csc(N)n1,MIC,Pseudomonas aeruginosa [1],64 µg/mL
same,MIC,Pseudomonas aeruginosa [2],32 µg/mL
same,MIC,Pseudomonas aeruginosa [3],16 µg/mL
same,MIC,Pseudomonas aeruginosa [4],32 µg/mL
same,MIC,Pseudomonas aeruginosa [5],32 µg/mL
same,MIC,Pseudomonas aeruginosa [6],32 µg/mL
same,MIC,Pseudomonas aeruginosa [7],32 µg/mL
same,MIC,Pseudomonas aeruginosa [8],32 µg/mL
same,MIC,Pseudomonas aeruginosa [9],32 µg/mL
same,MIC,Pseudomonas aeruginosa [10],32 µg/mL
same,MIC,Pseudomonas aeruginosa [11],16 µg/mL
same,MIC,Pseudomonas aeruginosa [12],32 µg/mL
same,MIC,Pseudomonas aeruginosa [13],128 µg/mL
same,MIC,Pseudomonas aeruginosa [14],32 µg/mL
same,MIC,Pseudomonas aeruginosa [15],32 µg/mL
same,MIC,Pseudomonas aeruginosa [16],128 µg/mL
same,MIC,Pseudomonas aeruginosa [17],16 µg/mL
same,MIC,Pseudomonas aeruginosa [18],32 µg/mL
same,MIC,Pseudomonas aeruginosa [19],16 µg/mL
same,MIC,Pseudomonas aeruginosa [20],32 µg/mL
same,MIC,Pseudomonas aeruginosa [21],64 µg/mL
same,MIC,Pseudomonas aeruginosa [22],32 µg/mL
same,MIC,Pseudomonas aeruginosa [23],64 µg/mL
same,MIC,Pseudomonas aeruginosa [24],16 µg/mL
same,MIC,Pseudomonas aeruginosa [25],8 µg/mL
same,MIC,Pseudomonas aeruginosa [26],32 µg/mL
same,MIC,Pseudomonas aeruginosa [27],32 µg/mL
same,MIC,Pseudomonas aeruginosa [28],1 µg/mL
same,MIC,Pseudomonas aeruginosa [29],16 µg/mL
same,MIC,Pseudomonas aeruginosa [30],4 µg/mL
same,MIC,Pseudomonas aeruginosa [31],16 µg/mL
same,MIC,Pseudomonas aeruginosa [32],4 µg/mL
same,MIC,Pseudomonas aeruginosa [33],4 µg/mL
same,MIC,Pseudomonas aeruginosa [34],2 µg/mL
same,MIC,Pseudomonas aeruginosa [35],32 µg/mL
same,MIC,Pseudomonas aeruginosa [36],32 µg/mL
CC(C)(O/N=C(\C(=O)N[C@@H]1C(=O)N2C(C(=O)[O-])=C(C[n+]3ccccc3)CS[C@H]12)c1csc(N)n1)C(=O)O [CEFTAZIDIME],MIC,Pseudomonas aeruginosa [37],8 µg/mL
same,MIC,Pseudomonas aeruginosa [38],8 µg/mL
same,MIC,Pseudomonas aeruginosa [1],16 µg/mL
same,MIC,Pseudomonas aeruginosa [2],32 µg/mL
same,MIC,Pseudomonas aeruginosa [3],32 µg/mL
same,MIC,Pseudomonas aeruginosa [4],16 µg/mL
same,MIC,Pseudomonas aeruginosa [5],16 µg/mL
same,MIC,Pseudomonas aeruginosa [6],16 µg/mL
same,MIC,Pseudomonas aeruginosa [7],16 µg/mL
same,MIC,Pseudomonas aeruginosa [8],16 µg/mL
same,MIC,Pseudomonas aeruginosa [9],16 µg/mL
same,MIC,Pseudomonas aeruginosa [10],16 µg/mL
same,MIC,Pseudomonas aeruginosa [11],4 µg/mL
same,MIC,Pseudomonas aeruginosa [12],16 µg/mL
same,MIC,Pseudomonas aeruginosa [13],32 µg/mL
same,MIC,Pseudomonas aeruginosa [14],32 µg/mL
same,MIC,Pseudomonas aeruginosa [15],64 µg/mL
same,MIC,Pseudomonas aeruginosa [16],128 µg/mL
same,MIC,Pseudomonas aeruginosa [39],8 µg/mL
same,MIC,Pseudomonas aeruginosa [17],8 µg/mL
same,MIC,Pseudomonas aeruginosa [18],32 µg/mL
same,MIC,Pseudomonas aeruginosa [19],16 µg/mL
same,MIC,Pseudomonas aeruginosa [20],64 µg/mL
same,MIC,Pseudomonas aeruginosa [21],64 µg/mL
same,MIC,Pseudomonas aeruginosa [22],32 µg/mL
same,MIC,Pseudomonas aeruginosa [23],16 µg/mL
same,MIC,Pseudomonas aeruginosa [24],16 µg/mL
same,MIC,Pseudomonas aeruginosa [40],8 µg/mL
same,MIC,Pseudomonas aeruginosa [25],8 µg/mL
same,MIC,Pseudomonas aeruginosa [26],32 µg/mL
same,MIC,Pseudomonas aeruginosa [27],32 µg/mL
same,MIC,Pseudomonas aeruginosa [28],4 µg/mL
same,MIC,Pseudomonas aeruginosa [29],16 µg/mL
same,MIC,Pseudomonas aeruginosa [30],32 µg/mL
same,MIC,Pseudomonas aeruginosa [31],16 µg/mL
same,MIC,Pseudomonas aeruginosa [32],32 µg/mL
same,MIC,Pseudomonas aeruginosa [33],8 µg/mL
same,MIC,Pseudomonas aeruginosa [34],1 µg/mL
same,MIC,Pseudomonas aeruginosa [41],32 µg/mL
same,MIC,Pseudomonas aeruginosa [35],32 µg/mL
same,MIC,Pseudomonas aeruginosa [42],32 µg/mL
same,MIC,Pseudomonas aeruginosa [36],64 µg/mL
same,MIC,Pseudomonas aeruginosa [43],32 µg/mL
C[C@@H](O)[C@H]1C(=O)N2C(C(=O)O)=C(SCCNC=N)C[C@H]12 [IMIPENEM ANHYDROUS],MIC,Pseudomonas aeruginosa [1],16 µg/mL
same,MIC,Pseudomonas aeruginosa [2],16 µg/mL
same,MIC,Pseudomonas aeruginosa [3],16 µg/mL
same,MIC,Pseudomonas aeruginosa [4],16 µg/mL
same,MIC,Pseudomonas aeruginosa [5],16 µg/mL
same,MIC,Pseudomonas aeruginosa [6],16 µg/mL
same,MIC,Pseudomonas aeruginosa [7],16 µg/mL
same,MIC,Pseudomonas aeruginosa [8],16 µg/mL
same,MIC,Pseudomonas aeruginosa [9],16 µg/mL
same,MIC,Pseudomonas aeruginosa [10],16 µg/mL
same,MIC,Pseudomonas aeruginosa [11],16 µg/mL
same,MIC,Pseudomonas aeruginosa [12],16 µg/mL
same,MIC,Pseudomonas aeruginosa [13],16 µg/mL
same,MIC,Pseudomonas aeruginosa [14],32 µg/mL
same,MIC,Pseudomonas aeruginosa [15],32 µg/mL
same,MIC,Pseudomonas aeruginosa [16],64 µg/mL
same,MIC,Pseudomonas aeruginosa [17],16 µg/mL
same,MIC,Pseudomonas aeruginosa [18],16 µg/mL
same,MIC,Pseudomonas aeruginosa [19],8 µg/mL
same,MIC,Pseudomonas aeruginosa [20],32 µg/mL
same,MIC,Pseudomonas aeruginosa [21],32 µg/mL
same,MIC,Pseudomonas aeruginosa [22],8 µg/mL
same,MIC,Pseudomonas aeruginosa [23],32 µg/mL
same,MIC,Pseudomonas aeruginosa [24],16 µg/mL
same,MIC,Pseudomonas aeruginosa [40],16 µg/mL
same,MIC,Pseudomonas aeruginosa [25],8 µg/mL
same,MIC,Pseudomonas aeruginosa [26],16 µg/mL
same,MIC,Pseudomonas aeruginosa [27],64 µg/mL
C[C@@H](O)[C@H]1C(=O)N2C(C(=O)O)=C(S[C@@H]3CN[C@H](C(=O)N(C)C)C3)[C@H](C)[C@H]12 [MEROPENEM],MIC,Pseudomonas aeruginosa [28],0.12 µg/mL
same,MIC,Pseudomonas aeruginosa [29],0.25 µg/mL
same,MIC,Pseudomonas aeruginosa [30],0.25 µg/mL
same,MIC,Pseudomonas aeruginosa [31],0.25 µg/mL
same,MIC,Pseudomonas aeruginosa [32],0.25 µg/mL
same,MIC,Pseudomonas aeruginosa [33],1 µg/mL
same,MIC,Pseudomonas aeruginosa [35],2 µg/mL
same,MIC,Pseudomonas aeruginosa [42],2 µg/mL
same,MIC,Pseudomonas aeruginosa [36],2 µg/mL
same,MIC,Pseudomonas aeruginosa [43],2 µg/mL
